This is an account of results in patent US20080234262A1 (Wyeth, priority 2007, published 2008).

Molecules are shown by their SMILES. A value given as a limit tells only on which side of the number the result lay.

One experiment has as its system breast line MDA468. In words: In vitro cell culture growth assay (MTS), MDA468. The class given is cell-based, human. To be noted: Homo sapiens, 72 h, MDA468 cells, three days after drug treatment. A digest of the protocol: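 Growth measured as percent of same-plate vehicle control by MTS metabolic dye conversion (A490). Breast MDA468 and prostate LNCap cells, plated a day ahead, were exposed to compounds for 3 days.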

The next experiment concerns the target PI3K (Homo sapiens, UniProt P42336). In words: Fluorescence polarization assay for PI3K.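 Further: PI3K kinase reaction on PIP2 with ATP, 30-60 min, product sensed by GST-GRP with red probe in fluorescence polarization (mP), controls without enzyme and at zero time.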 The class given is biochemical. The conditions noted are these: PI3Kα; read-out: PI3Kα IC50. A general note: In fluorescence polarisation assays a small probe gives low polarisation when free and higher when bound to something large.
Another experiment has as its system prostate line LNCap. In words: In vitro cell culture growth assay (MTS), LNCap.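 Further: viable cell density read by absorbance at 490 nm, growth expressed as percent of vehicle-treated cells on the same plate.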 It counts as cell-based, human. The conditions noted are these: Homo sapiens, LNCaP, 72 h, LNCap cells, three days after drug treatment.

Sequence of PI3K (P42336 whole entry): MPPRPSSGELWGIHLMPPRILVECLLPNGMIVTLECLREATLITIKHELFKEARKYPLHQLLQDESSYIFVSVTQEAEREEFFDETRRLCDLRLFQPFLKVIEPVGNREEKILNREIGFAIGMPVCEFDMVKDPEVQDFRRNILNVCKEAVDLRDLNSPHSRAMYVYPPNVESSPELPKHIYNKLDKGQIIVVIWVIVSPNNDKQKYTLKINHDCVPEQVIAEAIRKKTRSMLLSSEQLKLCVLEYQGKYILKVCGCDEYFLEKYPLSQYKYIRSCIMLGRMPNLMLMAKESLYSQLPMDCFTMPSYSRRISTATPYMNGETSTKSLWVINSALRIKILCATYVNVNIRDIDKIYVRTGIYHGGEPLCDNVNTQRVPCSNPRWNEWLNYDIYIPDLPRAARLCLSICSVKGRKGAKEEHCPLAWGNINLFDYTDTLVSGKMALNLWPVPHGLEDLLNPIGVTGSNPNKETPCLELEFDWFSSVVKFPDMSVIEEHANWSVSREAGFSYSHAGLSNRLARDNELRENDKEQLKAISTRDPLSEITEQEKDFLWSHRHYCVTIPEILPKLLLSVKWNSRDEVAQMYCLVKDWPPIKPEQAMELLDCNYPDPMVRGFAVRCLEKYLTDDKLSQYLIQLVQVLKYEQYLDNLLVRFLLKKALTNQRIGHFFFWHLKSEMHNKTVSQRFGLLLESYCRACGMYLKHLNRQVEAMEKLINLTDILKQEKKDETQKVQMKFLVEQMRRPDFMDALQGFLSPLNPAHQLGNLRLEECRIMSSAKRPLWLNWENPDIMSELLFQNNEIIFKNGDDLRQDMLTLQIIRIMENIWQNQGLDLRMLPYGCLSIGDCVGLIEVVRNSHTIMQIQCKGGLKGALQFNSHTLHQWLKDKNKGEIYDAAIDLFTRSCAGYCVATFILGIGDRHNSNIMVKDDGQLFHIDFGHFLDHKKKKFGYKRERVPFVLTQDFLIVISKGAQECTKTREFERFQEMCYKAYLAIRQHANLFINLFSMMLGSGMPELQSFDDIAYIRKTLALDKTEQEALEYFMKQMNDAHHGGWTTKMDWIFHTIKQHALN
Sequence of PI3K (P27986 whole entry partner): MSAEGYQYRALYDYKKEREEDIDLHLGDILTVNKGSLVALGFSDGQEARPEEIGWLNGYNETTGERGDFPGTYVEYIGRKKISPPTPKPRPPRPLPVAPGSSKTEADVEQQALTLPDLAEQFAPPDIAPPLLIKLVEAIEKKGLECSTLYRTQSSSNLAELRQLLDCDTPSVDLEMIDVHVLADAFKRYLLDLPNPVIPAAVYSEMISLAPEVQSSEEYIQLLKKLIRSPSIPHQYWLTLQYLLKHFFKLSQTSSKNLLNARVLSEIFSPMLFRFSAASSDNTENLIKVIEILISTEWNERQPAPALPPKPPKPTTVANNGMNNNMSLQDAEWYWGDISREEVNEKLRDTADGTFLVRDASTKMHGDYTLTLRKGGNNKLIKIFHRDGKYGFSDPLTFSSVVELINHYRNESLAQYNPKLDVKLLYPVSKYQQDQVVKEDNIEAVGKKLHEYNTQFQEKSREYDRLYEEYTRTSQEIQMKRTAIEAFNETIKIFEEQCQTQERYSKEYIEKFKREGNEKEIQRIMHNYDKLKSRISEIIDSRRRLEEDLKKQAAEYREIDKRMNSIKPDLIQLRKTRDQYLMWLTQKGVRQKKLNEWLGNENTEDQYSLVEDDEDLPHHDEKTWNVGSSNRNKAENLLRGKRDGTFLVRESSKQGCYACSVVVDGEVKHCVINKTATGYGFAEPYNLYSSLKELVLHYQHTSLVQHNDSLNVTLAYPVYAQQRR

For `CC(C)(C)OC(=O)N1CCC(n2ncc3c(N4CCOCC4)nc(-c4ccc(NC(=O)Nc5ncccn5)cc4)nc32)CC1` [Compound 886, tert-butyl 4-(4-morpholin-4-yl-6-{4-[(pyrimidin-2-ylcarbamoyl)amino]phenyl}-1H-pyrazolo[3,4-d]pyrimidin-1-yl)piperidine-1-carboxylate], the half-maximal inhibitory concentration (IC50) in the experiment on breast line MDA468 is 6700 nM; on PI3K, 1230 nM; with prostate line LNCap it was 2600 nM.
As for `CCOC(=O)N1CCC(n2ncc3c(N4CCOCC4)nc(-c4ccc(Nc5ncc[nH]5)cc4)nc32)CC1` [Compound 887, ethyl 4-{6-[4-(1H-imidazol-2-ylamino)phenyl]-4-morpholin-4-yl-1H-pyrazolo[3,4-d]pyrimidin-1-yl}piperidine-1-carboxylate], the figures for the IC50 in the experiment on breast line MDA468, at PI3K and in the experiment with prostate line LNCap were 2300 nM, 168 nM and 1200 nM, respectively.
As for `CCOC(=O)N1CCC(n2ncc3c(N4CCOC[C@H]4C)nc(-c4ccc(NC(=O)NC)cc4)nc32)CC1` [Compound 888, ethyl 4-(6-{4-[(methylcarbamoyl)amino]phenyl}-4-[(3R)-3-methylmorpholin-4-yl]-1H-pyrazolo[3,4-d]pyrimidin-1-yl)piperidine-1-carboxylate], the IC50 in the experiment on breast line MDA468 was found to be 220 nM; at PI3K, 1990 nM; in the experiment with prostate line LNCap, 10 nM.
Turning to `CCNC(=O)Nc1ccc(-c2nc(N3CCOC[C@H]3C)c3cnn(C4CCN(C(=O)OCC)CC4)c3n2)cc1` [Compound 889, ethyl 4-(6-{4-[(ethylcarbamoyl)amino]phenyl}-4-[(3R)-3-methylmorpholin-4-yl]-1H-pyrazolo[3,4-d]pyrimidin-1-yl)piperidine-1-carboxylate], the IC50 amounted to 600 nM in the experiment with breast line MDA468, 4360 nM on PI3K and 19 nM in the experiment with prostate line LNCap.
For `CCOC(=O)N1CCC(n2ncc3c(N4CCOC[C@H]4C)nc(-c4ccc(NC(=O)NCCF)cc4)nc32)CC1` [Compound 890, ethyl 4-{6-(4-{[(2-fluoroethyl)carbamoyl]amino}phenyl)-4-[(3R)-3-methylmorpholin-4-yl]-1H-pyrazolo[3,4-d]pyrimidin-1-yl}piperidine-1-carboxylate], the half-maximal inhibitory concentration (IC50) was determined as 500 nM in the experiment with breast line MDA468, 4550 nM on PI3K and 12 nM with prostate line LNCap.
In the same order, the values of `CCOC(=O)N1CCC(n2ncc3c(N4CCOC[C@H]4C)nc(-c4ccc(NC(=O)Nc5ccccc5)cc4)nc32)CC1` [Compound 891, ethyl 4-(4-[(3R)-3-methylmorpholin-4-yl]-6-{4-[(phenylcarbamoyl)amino]phenyl}-1H-pyrazolo[3,4-d]pyrimidin-1-yl)piperidine-1-carboxylate] are 210 nM, 590 nM and 20 nM.
Take `CCOC(=O)N1CCC(n2ncc3c(N4CCOC[C@H]4C)nc(-c4ccc(NC(=O)Nc5cccnc5)cc4)nc32)CC1` [Compound 892, ethyl 4-(4-[(3R)-3-methylmorpholin-4-yl]-6-{4-[(pyridin-3-ylcarbamoyl)amino]phenyl}-1H-pyrazolo[3,4-d]pyrimidin-1-yl)piperidine-1-carboxylate]: the IC50 came out at 70 nM in the experiment with breast line MDA468, 453 nM at PI3K and 0.8 nM in the experiment with prostate line LNCap.
Consider `CCOC(=O)N1CCC(n2ncc3c(N4CCOC[C@H]4C)nc(-c4ccc(NC(=O)Nc5ccncc5)cc4)nc32)CC1` [Compound 893, ethyl 4-(4-[(3R)-3-methylmorpholin-4-yl]-6-{4-[(pyridin-4-ylcarbamoyl)amino]phenyl}-1H-pyrazolo[3,4-d]pyrimidin-1-yl)piperidine-1-carboxylate], for which the IC50 was 180 nM with breast line MDA468, 517 nM on PI3K and 5 nM in the experiment with prostate line LNCap.
For `CCNC(=O)Nc1ccc(-c2nc(N3CCOC[C@@H]3C)c3cnn(C4CCN(C(=O)OCC)CC4)c3n2)cc1` [Compound 894, ethyl 4-(6-{4-[(ethylcarbamoyl)amino]phenyl}-4-[(3S)-3-methylmorpholin-4-yl]-1H-pyrazolo[3,4-d]pyrimidin-1-yl)piperidine-1-carboxylate], the IC50 was 960 nM with breast line MDA468, 553 nM on PI3K and 100 nM with prostate line LNCap.
On to `CCOC(=O)N1CCC(n2ncc3c(N4CCOC[C@@H]4C)nc(-c4ccc(NC(=O)NCCF)cc4)nc32)CC1` [Compound 895, ethyl 4-{6-(4-{[(2-fluoroethyl)carbamoyl]amino}phenyl)-4-[(3S)-3-methylmorpholin-4-yl]-1H-pyrazolo[3,4-d]pyrimidin-1-yl}piperidine-1-carboxylate], for which the IC50 in the experiment on breast line MDA468 worked out at 950 nM; on PI3K it was 521 nM; in the experiment on prostate line LNCap, 100 nM.
Take `CCOC(=O)N1CCC(n2ncc3c(N4CCOC[C@@H]4C)nc(-c4ccc(NC(=O)Nc5ccccc5)cc4)nc32)CC1` [Compound 896, ethyl 4-(4-[(3S)-3-methylmorpholin-4-yl]-6-{4-[(phenylcarbamoyl)amino]phenyl}-1H-pyrazolo[3,4-d]pyrimidin-1-yl)piperidine-1-carboxylate]: the figures for the IC50 in the experiment with breast line MDA468, at PI3K and in the experiment on prostate line LNCap were 800 nM, 19 nM and 150 nM, respectively.
Take `CCOC(=O)N1CCC(n2ncc3c(N4CCOC[C@@H]4C)nc(-c4ccc(NC(=O)Nc5cccnc5)cc4)nc32)CC1` [Compound 897, ethyl 4-(4-[(3S)-3-methylmorpholin-4-yl]-6-{4-[(pyridin-3-ylcarbamoyl)amino]phenyl}-1H-pyrazolo[3,4-d]pyrimidin-1-yl)piperidine-1-carboxylate]: the half-inhibitory concentration (IC50) in the experiment with breast line MDA468 is 320 nM; on PI3K, 28 nM; in the experiment with prostate line LNCap, 40 nM.
For `CCOC(=O)N1CCC(n2ncc3c(N4CCOC[C@@H]4C)nc(-c4ccc(NC(=O)Nc5ccncc5)cc4)nc32)CC1` [Compound 898, ethyl 4-(4-[(3S)-3-methylmorpholin-4-yl]-6-{4-[(pyridin-4-ylcarbamoyl)amino]phenyl}-1H-pyrazolo[3,4-d]pyrimidin-1-yl)piperidine-1-carboxylate], the half-inhibitory concentration (IC50) with breast line MDA468 came to 380 nM; at PI3K it was 18 nM; in the experiment on prostate line LNCap, 40 nM.
`CCOC(=O)N1CCC(n2ncc3c(N4CCOC[C@@H]4C)nc(-c4ccc(NC(=O)Nc5ccc(N6CCOCC6)cc5)cc4)nc32)CC1` [Compound 899, ethyl 4-{4-[(3S)-3-methylmorpholin-4-yl]-6-(4-{[(4-morpholin-4-ylphenyl)carbamoyl]amino}phenyl)-1H-pyrazolo[3,4-d]pyrimidin-1-yl}piperidine-1-carboxylate]: the IC50 with breast line MDA468 worked out at 150 nM; on PI3K, 30 nM; in the experiment on prostate line LNCap, 6.8 nM.
With `CCOC(=O)Nc1ccc(-c2nc(N3CCOCC3)c3cnn(C4CCN(C(=O)OC)CC4)c3n2)cc1` [Compound 900, methyl 4-(6-{4-[(ethoxycarbonyl)amino]phenyl}-4-morpholin-4-yl-1H-pyrazolo[3,4-d]pyrimidin-1-yl)piperidine-1-carboxylate], the values for the IC50 in the experiment with breast line MDA468, at PI3K and with prostate line LNCap were more than 60000 nM, 6720 nM and 760 nM, respectively.
On to `COC(=O)N1CCC(n2ncc3c(N4CCOCC4)nc(-c4ccc(NC(=O)OCCO)cc4)nc32)CC1` [Compound 901, methyl 4-[6-(4-{[(2-hydroxyethoxy)carbonyl]amino}phenyl)-4-morpholin-4-yl-1H-pyrazolo[3,4-d]pyrimidin-1-yl]piperidine-1-carboxylate], for which the IC50 in the experiment with breast line MDA468 came out at 280 nM; at PI3K, 557 nM; in the experiment on prostate line LNCap, 30 nM.
For the compound `COCCOC(=O)Nc1ccc(-c2nc(N3CCOCC3)c3cnn(C4CCN(C(=O)OC)CC4)c3n2)cc1` [Compound 902, methyl 4-[6-(4-{[(2-methoxyethoxy)carbonyl]amino}phenyl)-4-morpholin-4-yl-1H-pyrazolo[3,4-d]pyrimidin-1-yl]piperidine-1-carboxylate], the IC50 was more than 60000 nM with breast line MDA468, 3050 nM at PI3K and 3300 nM in the experiment on prostate line LNCap.
Take `COC(=O)N1CCC(n2ncc3c(N4CCOCC4)nc(-c4ccc(NC(=O)OCCN)cc4)nc32)CC1` [Compound 903, methyl 4-[6-(4-{[(2-aminoethoxy)carbonyl]amino}phenyl)-4-morpholin-4-yl-1H-pyrazolo[3,4-d]pyrimidin-1-yl]piperidine-1-carboxylate]: the IC50 stood at 8000 nM in the experiment on breast line MDA468, 132 nM at PI3K and 3200 nM in the experiment with prostate line LNCap.
Turning to `COC(=O)N1CCC(n2ncc3c(N4CCOCC4)nc(-c4ccc(NC(=O)OCCN(C)C)cc4)nc32)CC1` [Compound 904, methyl 4-{6-[4-({[2-(dimethylamino)ethoxy]carbonyl}amino)phenyl]-4-morpholin-4-yl-1H-pyrazolo[3,4-d]pyrimidin-1-yl}piperidine-1-carboxylate], the IC50 is 7800 nM in the experiment on breast line MDA468, 645 nM at PI3K and 2300 nM with prostate line LNCap.
In the same order, the values of `COC(=O)N1CCC(n2ncc3c(N4CCOCC4)nc(-c4ccc(NC(=O)OCCN5CCCC5)cc4)nc32)CC1` [Compound 905, methyl 4-[4-morpholin-4-yl-6-(4-{[(2-pyrrolidin-1-ylethoxy)carbonyl]amino}phenyl)-1H-pyrazolo[3,4-d]pyrimidin-1-yl]piperidine-1-carboxylate] are 4500 nM, 250 nM and 1400 nM.
`COC(=O)N1CCC(n2ncc3c(N4CCOCC4)nc(-c4ccc(NC(=O)OCCN5CCOCC5)cc4)nc32)CC1` [Compound 906, methyl 4-[4-morpholin-4-yl-6-(4-{[(2-morpholin-4-ylethoxy)carbonyl]amino}phenyl)-1H-pyrazolo[3,4-d]pyrimidin-1-yl]piperidine-1-carboxylate]: the IC50 is 23000 nM in the experiment on breast line MDA468, 2040 nM on PI3K and 5200 nM in the experiment on prostate line LNCap.

Usually IC50 stands for the concentration that gives 50% inhibition.
